Values of other authors, collected in patent US12274730B2, “Flavonoid compositions and methods of use” (Berkley, LLC, priority 2015, dated 2025).

Conditions: general statement, no test described

Half-life: 3.5 to 11 h
Compound: O=c1c(O)c(-c2ccc(O)c(O)c2)oc2cc(O)cc(O)c12 [Quercetin, 2-(3,4-dihydroxyphenyl)-3,5,7-trihydroxy-4H-chromen-4-one]
